For orientation: Ki means a dissociation constant, usually derived from enzyme kinetics or from competition with a known ligand.

The target of experiment [1] is CRBN-DDB1 protein complex (Homo sapiens, UniProt Q96SW2). The experiment in a line: Fluorescence polarization (FP) assay, displacement of Cy5-labelled thalidomide. The following applies: 25 nM CRBN-DDB1, 5 nM Cy5-labelled thalidomide, read-out: CRBN binding Ki. An outline of the steps:
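CRBN-DDB1 mixed with Cy5-thalidomide tracer and test compound, then incubated 60 min at room temperature (20-25 °C) before fluorescence polarization read-out. Ki derived from tracer displacement across a range of compound concentrations.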
In general terms: In fluorescence polarisation assays a small probe gives low polarisation when free and higher when bound to something large.

Experiment [2] deals with T1, IKZF1-compound-CRBN/DDB1 ternary complex (Homo sapiens, UniProt Q96SW2).
T1 construct: Strep-tagged Ikaros (IKZF1 ZF2)
The experiment in a line: IKZF1-compound-CRBN/DDB1 ternary complex formation, AlphaLISA homogenous assay. Format: biochemical. The following applies: AlphaLISA, 0.1, 1 and 10 μM, normalized to Lenalidomide response. How it is done:
Strep-tagged Ikaros (IKZF1 ZF2) and His-CRBN/DDB1 complex preparations were centrifugated to remove large aggregates (18000 rcf, 4° C., 5 min). Supernatant was collected and protein concentration was determined spectrophotometrically. The AlphaLISA bead-Protein mixtures were prepared: CRBN-acceptor bead (40 μg/ml Anti-6×His beads, 200 nM His-CRBN/DDB1 in PBS pH 7.4 supplemented with 0.1% Tween-20) Ikaros-donor bead mix (40 μg/ml Strep-Tactin beads, 800 nM IKZF1 in PBS pH 7.4 supplemented with 0.1% Tween-20 and 2 mM DTT). Bead mixes were incubated in dark for 30 minutes at room temperature. Tested compounds were dispensed into small volume AlphaPlate (Perkin Elmer) using Echo 555 liquid handler. CRBN-acceptor bead mix and Ikaros-donor bead mix were combined and dispensed into plate with compounds and DMSO only (10 μl of master mix per well). Final sample composition: 20 μg/ml Anti-6×His beads, 20 μg/ml Strep-Tactin beads, 100 nM His-CRBN/DDB1, 400 nM IKZF1, 2% DMSO, 0.1% Tween-20, 1 mM DTT in PBS pH 7.4, +/− compound. Plate was sealed and covered to protect against light. Sample was mixed using Vibroturbulator. […] The plate seal was removed and sample luminescence was determined using Perkin Elmer Enspire plate reader. Readouts were assigned to certain compound concentration. […] The average and standard deviation (SD) were calculated for each compound concentration point. […]
(In general: In Alpha technology, singlet oxygen from a donor bead excites a nearby acceptor bead.)

The target of experiment [3] is BRD4-compound-CRBN/DDB1 ternary complex (Homo sapiens, UniProt O60885+Q96SW2). The experiment in a line: BRD4-compound-CRBN/DDB1 ternary complex formation, AlphaLISA homogenous assay. Type of experiment: biochemical. The following applies: for EC50: 100 nM His-CRBN/DDB1, 20 nM BRD4, N = 3, read-out: TF50 (compound concentration which mediate the half of maximal response observed for Ternary Complex); for Normalized AUC to dBET1: area under curve 1.63-2500 nM. How it is done:
Biotinylated BRD4 and His-CRBN/DDB1 complex preparations were centrifugated to remove large aggregates (18000 rcf, 4° C., 5 min). Supernatant was collected and protein concentration was determined spectrophotometrically. The AlphaLISA bead-Protein mixtures were prepared: CRBN-acceptor bead (40 μg/ml Anti-6×His beads, 200 nM His-CRBN/DDB1 in PBS pH 7.4 supplemented with 0.1% Tween-20) and BRD4-donor bead (40 μg/ml Streptavidin beads, 40 nM BRD4 in PBS pH 7.4 supplemented with 0.1% Tween-20 and 2 mM DTT). Bead mixes were incubated in dark for 30 minutes at room temperature.
CRBN-acceptor bead mix and BRD4-donor bead mix were combined and dispensed into plate with compounds and DMSO only (10 μl of master mix per well). Final sample composition: 20 μg/ml Anti-6×His beads, 20 μg/ml Stretavidin beads, 100 nM His-CRBN/DDB1, 20 nM BRD4, 2% DMSO, 0.1% Tween-20, 1 mM DTT in PBS pH 7.4, +/− compound. Plate was sealed and covered to protect against light. Sample was mixed using Vibroturbulator. Subsequently, solutions in the plate was centrifugated and incubated in the dark for 30 minutes at 25° C. The plate seal was removed and sample luminescence was determined using Perkin Elmer Enspire plate reader. Readouts were assigned to certain compound concentration. Solutions without compound were utilized to determine background response (an average value) which subsequently was subtracted from raw data collected for compound mixtures.

For another experiment, the target named is BRD4 (Homo sapiens, UniProt O60885). In words: BRD4 degradation assay, H929 cell line (Simple Western). The settings on record: H929 cells, 6 h.
In the next experiment the test system is IKZF1. In words: IKZF1 degradation assay, H929 cell line (western blot densitometry). Format: cell-based. The settings on record: H929 cells, 6 h. The source says:
After primary and secondary Ab staining, the membranes were washed and signals developed. The densitometry analysis was implemented to obtain the numeric values used later in the protein level evaluation process.

In another experiment the test system is IKZF3. In words: IKZF3 degradation assay, H929 cell line (western blot densitometry). The following applies: H929 cells, 6 h. Type of experiment: cell-based. A general note: Immunoblotting shows a protein as a band on a membrane.

With `Cc1sc2c(c1C)C(c1ccc(Cl)cc1)=N[C@@H](CC(=O)NCCCCCCCCNC(=O)Cn1c(C)nc3c(C(=O)NC4CCC(=O)NC4=O)cccc31)c1nnc(C)n1-2` (stereo partly drawn) [Compound 65, 1-(2-((8-(2-((S)-4-(4-chlorophenyl)-2,3,9-trimethyl-6H-thieno[3,2-f][1,2,4]triazolo[4,3-a][1,4]diazepin-6-yl)acetamido)octyl)amino)-2-oxoethyl)-N-(2,6-dioxopiperidin-3-yl)-2-methyl-1H-benzo[d]imidazole-4-carboxamide], the Ki in experiment [1] was less than 1000 nM. The “IKZF1-compound-CRBN/DDB1 complex formation (in words)” value in experiment [2] is given as “do not promote IKZF1-compound-CRBN/DDB1 complex formation”. For the same compound, in experiment [3], the EC50 was 38.8 nM and the “Normalized AUC to dBET1” value is 1.22.

For the compound `Cc1nc2c(C(=O)NC3CCC(=O)NC3=O)cc(OCC(=O)NCCCCCCCCNC(=O)C[C@@H]3N=C(c4ccc(Cl)cc4)c4c(sc(C)c4C)-n4c(C)nnc43)cc2[nH]1` (stereo partly drawn) [Compound 66, 5-(2-((8-(2-((S)-4-(4-chlorophenyl)-2,3,9-trimethyl-6H-thieno[3,2-f][1,2,4]triazolo[4,3-a][1,4]diazepin-6-yl)acetamido)octyl)amino)-2-oxoethoxy)-N-(2,6-dioxopiperidin-3-yl)-2-methyl-1H-benzo[d]imidazole-7-carboxamide], the “BRD4 degradation (in words)” value at BRD4 is given as “can degrade BRD4”. Besides, the Ki in experiment [1] is less than 1000 nM. Besides, the EC50 in experiment [3] was 42.1 nM. Besides, the “Normalized AUC to dBET1” value in experiment [3] is given as 1.53. Besides, the “% of IKZF1 α protein reduction based on densitometry values” in the experiment on IKZF1 (0.1 μM), with IKZF1 (1 μM) and in the experiment with IKZF1 (10 μM) was ≤25% (≤25% for 0-25% of IKZF1 protein reduction) throughout. In addition, the “% of IKZF3 protein reduction based on densitometry values, IKZF3 Band I” value in the experiment with IKZF3 (0.1 μM), with IKZF3 (1 μM) and in the experiment with IKZF3 (10 μM) was ≤25% (≤25% for 0-25% of IKZF3 protein reduction) throughout. The “% of IKZF3 protein reduction based on densitometry values, IKZF3 Band II” value in the experiment with IKZF3 (0.1 μM), in the experiment on IKZF3 (1 μM) and in the experiment with IKZF3 (10 μM) was ≤25% (≤25% for 0-25% of IKZF3 protein reduction) throughout.

These data come from patent US20240343706A1, “PIPERIDINE-2,6-DIONE DERIVATIVES WHICH BIND TO CEREBLON, AND METHODS OF USE THEREOF” (Captor Therapeutics S.A., priority 2019, published 2024).
